The source made the active and inactive calls. No cut-off for these calls is given here.

One may read the ED50 as the dose at which the effect has come halfway, by size or by number of responders.

The first assay concerns Mus musculus. Briefly: Ability to abolish the hindlimb tonic extensor components of a maximal electroshock-induced seizure in vivo at 5 mg/kg; None mice protected. Type of assay: functional. For orientation: Protection in the maximal electroshock model is a classic sign of anticonvulsant action.
`C[C@@H]1Cc2cc3c(cc2C(c2ccc(N)cc2)=NN1c1nc2ccccc2s1)OCO3`: the Protection is recorded as 0%.

The next assay concerns Mus musculus. The experiment in a line: Ability to abolish the hindlimb tonic extensor components of a maximal electroshock-induced seizure in vivo at 10 mg/kg. Type of assay: functional.
Regarding `C[C@@H]1Cc2cc3c(cc2C(c2ccc(N)cc2)=NN1c1nc2ccccc2s1)OCO3`, the Protection was 80%.
In turn, `COC(=O)c1ccsc1N1N=C(c2ccc(N)cc2)c2cc3c(cc2C[C@H]1C)OCO3` displayed a Protection of 40%.

A further assay concerns Mus musculus. Briefly: Ability to abolish the hindlimb tonic extensor components of a maximal electroshock-induced seizure in vivo; NA means Not active. Type of assay: functional, organism-based.
Turning to `C[C@@H]1Cc2cc3c(cc2C(c2ccc(N)cc2)=NN1c1ccc2ccccc2n1)OCO3`, the ED50 entry was “inactive”.
Consider `C[C@@H]1Cc2cc3c(cc2C(c2ccc(N)cc2)=NN1c1nccc(C(F)(F)F)n1)OCO3`, for which the ED50 result was “inactive”.

Another assay concerns Mus musculus. Briefly: Ability to abolish the hindlimb tonic extensor components of a maximal electroshock-induced seizure in vivo. Type of assay: functional.
The compound `C[C@@H]1Cc2cc3c(cc2C(c2ccc(N)cc2)=NN1c1ccccn1)OCO3` came in with a median effective dose (ED50) of 0.76 mg/kg.
For the compound `CC(=O)N1N=C(c2ccc(N)cc2)c2cc3c(cc2C[C@H]1C)OCO3` [TALAMPANEL], the ED50 was 0.48 mg/kg.
Same read-out and setting: under `C[C@@H]1Cc2cc3c(cc2C(c2ccc(N)cc2)=NN1c1ccccc1)OCO3` stands 1.47 mg/kg; under `C[C@@H]1Cc2cc3c(cc2C(c2ccc(N)cc2)=NN1c1nncc2ccccc12)OCO3`, 7.8 mg/kg; under `C[C@@H]1Cc2cc3c(cc2C(c2ccc(N)cc2)=NN1c1nc2ccccc2[nH]1)OCO3`, 3.2 mg/kg.
`C[C@@H]1Cc2cc3c(cc2C(c2ccc(N)cc2)=NN1c1nc2ccccc2s1)OCO3` gave an ED50 of 5 mg/kg.

Another assay concerns Mus musculus. The experiment in a line: Ability to abolish the hindlimb tonic extensor components of a maximal electroshock-induced seizure in vivo; NA means Not active at 10 mg/kg. More on the design: dose 10 mg/kg. It counts as functional, organism-based.
`C[C@@H]1Cc2cc3c(cc2C(c2ccc(Cl)cc2)=NN1c1ccccn1)OCO3`: the ED50 entry is “inactive”.
On the same count and under the same terms, under `C[C@@H]1Cc2cc3c(cc2C(c2ccc(I)cc2)=NN1c1ccccn1)OCO3` stands “inactive”; under `C[C@@H]1Cc2cc3c(cc2C(c2ccccc2)=NN1c1ccccn1)OCO3`, “inactive”.
Take `C[C@@H]1Cc2cc3c(cc2C(c2ccc(N)cc2)=NN1c1cccc2ccccc12)OCO3`: the ED50 entry was “inactive”.
